In ChEMBL document CHEMBL1926576, “Fragment based lead discovery of small molecule inhibitors for the EPHA4 receptor tyrosine kinase” (Eur J Med Chem, 2012):
pIC50: −log10 of the molar value.

Assays:
[1] = molecular target: Tyrosine-protein kinase ZAP-70 (Homo sapiens) (UniProt P43403); experiment: Inhibition of ZAP70 assessed as residual activity at 10 uM using [33P-ATP] by radiometric filter binding assay
[2] = molecular target: Eukaryotic elongation factor 2 kinase (Homo sapiens) (UniProt O00418); experiment: Inhibition of EF2K assessed as residual activity at 10 uM using [33P-ATP] by radiometric filter binding assay
Chain of Eukaryotic elongation factor 2 kinase (Homo sapiens) (O00418 whole entry): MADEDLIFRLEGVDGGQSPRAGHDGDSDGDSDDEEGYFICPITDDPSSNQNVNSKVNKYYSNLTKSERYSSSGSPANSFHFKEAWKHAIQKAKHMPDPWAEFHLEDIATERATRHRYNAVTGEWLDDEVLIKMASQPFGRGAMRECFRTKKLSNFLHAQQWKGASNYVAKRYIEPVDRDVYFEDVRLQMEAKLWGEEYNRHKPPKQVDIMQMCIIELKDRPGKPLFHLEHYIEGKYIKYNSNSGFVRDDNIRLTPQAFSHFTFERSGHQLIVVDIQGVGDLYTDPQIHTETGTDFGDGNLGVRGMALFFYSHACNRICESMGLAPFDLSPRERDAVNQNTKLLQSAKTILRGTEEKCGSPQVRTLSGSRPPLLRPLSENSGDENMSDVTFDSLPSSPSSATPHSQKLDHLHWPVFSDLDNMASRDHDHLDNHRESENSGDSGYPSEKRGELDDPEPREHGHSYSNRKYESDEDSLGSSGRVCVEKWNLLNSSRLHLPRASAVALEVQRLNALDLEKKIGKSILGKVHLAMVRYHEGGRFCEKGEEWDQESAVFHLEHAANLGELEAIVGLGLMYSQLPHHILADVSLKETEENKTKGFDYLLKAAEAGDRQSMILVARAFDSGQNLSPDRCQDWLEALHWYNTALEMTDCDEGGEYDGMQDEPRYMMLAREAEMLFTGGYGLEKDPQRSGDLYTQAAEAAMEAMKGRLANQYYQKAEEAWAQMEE

[3] = molecular target: Mitogen-activated protein kinase kinase kinase 9 (Homo sapiens) (UniProt P80192); experiment: Inhibition of MLK1 assessed as residual activity at 10 uM using [33P-ATP] by radiometric filter binding assay
[4] = Inhibition of PHK assessed as residual activity at 10 uM using [33P-ATP] by radiometric filter binding assay
[5] = molecular target: Aurora kinase B (Homo sapiens) (UniProt Q96GD4); experiment: Inhibition of aurora-B assessed as residual activity at 10 uM using [33P-ATP] by radiometric filter binding assay
Chain of Aurora kinase B (Homo sapiens) (Q96GD4 whole entry): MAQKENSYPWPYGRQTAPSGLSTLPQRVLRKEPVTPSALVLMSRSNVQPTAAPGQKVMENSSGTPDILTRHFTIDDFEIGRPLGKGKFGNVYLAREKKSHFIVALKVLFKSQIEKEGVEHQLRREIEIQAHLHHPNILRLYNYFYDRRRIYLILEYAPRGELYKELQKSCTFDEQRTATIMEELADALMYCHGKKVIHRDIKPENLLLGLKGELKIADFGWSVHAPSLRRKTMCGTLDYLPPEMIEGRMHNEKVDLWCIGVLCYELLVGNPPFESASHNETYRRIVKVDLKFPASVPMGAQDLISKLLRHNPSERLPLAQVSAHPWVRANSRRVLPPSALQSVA

[6] = molecular target: Ephrin type-B receptor 2 (Homo sapiens) (UniProt P29323); experiment: Inhibition of EPHB2 assessed as residual activity at 10 uM using [33P-ATP] by radiometric filter binding assay
[7] = molecular target: Serine/threonine-protein kinase STK11 (Homo sapiens) (UniProt Q15831); experiment: Inhibition of LKB1 assessed as residual activity at 10 uM using [33P-ATP] by radiometric filter binding assay
Chain of Serine/threonine-protein kinase STK11 (Homo sapiens) (Q15831 whole entry): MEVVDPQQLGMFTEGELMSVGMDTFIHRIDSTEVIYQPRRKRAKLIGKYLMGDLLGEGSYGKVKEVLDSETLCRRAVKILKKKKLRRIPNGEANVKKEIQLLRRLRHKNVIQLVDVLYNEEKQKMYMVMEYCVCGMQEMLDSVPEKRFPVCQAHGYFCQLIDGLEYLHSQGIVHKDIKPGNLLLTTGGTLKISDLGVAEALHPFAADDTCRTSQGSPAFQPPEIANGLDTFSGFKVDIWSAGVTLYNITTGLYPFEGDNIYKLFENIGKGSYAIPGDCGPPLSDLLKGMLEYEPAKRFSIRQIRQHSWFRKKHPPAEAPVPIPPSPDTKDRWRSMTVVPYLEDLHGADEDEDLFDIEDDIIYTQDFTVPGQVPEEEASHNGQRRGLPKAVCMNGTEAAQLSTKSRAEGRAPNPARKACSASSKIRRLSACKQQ

[8] = molecular target: Mitogen-activated protein kinase 1 (Homo sapiens) (UniProt P28482); experiment: Inhibition of ERK2 assessed as residual activity at 10 uM using [33P-ATP] by radiometric filter binding assay
[9] = molecular target: Serine/threonine-protein kinase PAK 6 (Homo sapiens) (UniProt Q9NQU5); experiment: Inhibition of PAK6 assessed as residual activity at 10 uM using [33P-ATP] by radiometric filter binding assay
[10] = molecular target: Serine/threonine-protein kinase 16 (Homo sapiens) (UniProt O75716); experiment: Inhibition of MPSK1 assessed as residual activity at 10 uM using [33P-ATP] by radiometric filter binding assay
Chain of Serine/threonine-protein kinase 16 (Homo sapiens) (O75716 whole entry, looked up): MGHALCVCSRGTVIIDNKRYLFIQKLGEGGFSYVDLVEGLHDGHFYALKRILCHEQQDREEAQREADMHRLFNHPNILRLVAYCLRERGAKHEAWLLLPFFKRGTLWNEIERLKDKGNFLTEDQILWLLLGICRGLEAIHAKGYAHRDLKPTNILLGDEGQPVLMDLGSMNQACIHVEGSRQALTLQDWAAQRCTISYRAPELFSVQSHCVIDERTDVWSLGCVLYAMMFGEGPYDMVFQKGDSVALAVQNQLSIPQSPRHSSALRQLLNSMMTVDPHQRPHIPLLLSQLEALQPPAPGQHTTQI

Ephrin type-A receptor 4 = Ephrin type-A receptor 4 (Homo sapiens, UniProt P54764); experiment: Inhibition of his-tagged EPHA4-mediated poly(Glu,Tyr) phosphorylation after 75 mins using E4:Y1 as substrate by fluorescence assay
Chain of Ephrin type-A receptor 4 (P54764 whole entry): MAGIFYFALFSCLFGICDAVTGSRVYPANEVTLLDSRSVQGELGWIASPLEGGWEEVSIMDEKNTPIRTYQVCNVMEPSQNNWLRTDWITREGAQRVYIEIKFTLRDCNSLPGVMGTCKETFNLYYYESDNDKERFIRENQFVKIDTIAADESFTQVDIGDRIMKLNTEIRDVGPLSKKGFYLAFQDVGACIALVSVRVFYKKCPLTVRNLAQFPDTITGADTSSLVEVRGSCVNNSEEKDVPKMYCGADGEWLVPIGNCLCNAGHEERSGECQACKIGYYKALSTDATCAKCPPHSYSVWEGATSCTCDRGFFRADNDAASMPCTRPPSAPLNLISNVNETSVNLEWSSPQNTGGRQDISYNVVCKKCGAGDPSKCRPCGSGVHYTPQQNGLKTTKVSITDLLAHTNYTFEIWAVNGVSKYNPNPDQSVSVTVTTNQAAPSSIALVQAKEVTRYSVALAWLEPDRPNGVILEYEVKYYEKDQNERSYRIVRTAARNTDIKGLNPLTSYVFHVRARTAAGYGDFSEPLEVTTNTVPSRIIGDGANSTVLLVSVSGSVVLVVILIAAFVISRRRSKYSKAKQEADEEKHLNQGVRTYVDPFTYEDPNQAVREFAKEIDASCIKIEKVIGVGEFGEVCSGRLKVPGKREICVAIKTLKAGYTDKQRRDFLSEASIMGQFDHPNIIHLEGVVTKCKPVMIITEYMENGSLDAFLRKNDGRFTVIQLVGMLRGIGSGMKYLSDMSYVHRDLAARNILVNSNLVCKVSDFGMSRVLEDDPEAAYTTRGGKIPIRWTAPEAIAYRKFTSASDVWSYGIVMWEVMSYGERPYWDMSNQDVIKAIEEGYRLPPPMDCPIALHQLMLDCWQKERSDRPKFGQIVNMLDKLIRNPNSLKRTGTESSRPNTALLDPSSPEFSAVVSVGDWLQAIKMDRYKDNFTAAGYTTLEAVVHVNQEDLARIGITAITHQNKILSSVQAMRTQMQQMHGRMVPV

[11] = molecular target: MAP kinase-interacting serine/threonine-protein kinase 2 (Homo sapiens) (UniProt Q9HBH9); experiment: Inhibition of MNK2 assessed as residual activity at 10 uM using [33P-ATP] by radiometric filter binding assay
Chain of MAP kinase-interacting serine/threonine-protein kinase 2 (Homo sapiens) (Q9HBH9 whole entry, looked up): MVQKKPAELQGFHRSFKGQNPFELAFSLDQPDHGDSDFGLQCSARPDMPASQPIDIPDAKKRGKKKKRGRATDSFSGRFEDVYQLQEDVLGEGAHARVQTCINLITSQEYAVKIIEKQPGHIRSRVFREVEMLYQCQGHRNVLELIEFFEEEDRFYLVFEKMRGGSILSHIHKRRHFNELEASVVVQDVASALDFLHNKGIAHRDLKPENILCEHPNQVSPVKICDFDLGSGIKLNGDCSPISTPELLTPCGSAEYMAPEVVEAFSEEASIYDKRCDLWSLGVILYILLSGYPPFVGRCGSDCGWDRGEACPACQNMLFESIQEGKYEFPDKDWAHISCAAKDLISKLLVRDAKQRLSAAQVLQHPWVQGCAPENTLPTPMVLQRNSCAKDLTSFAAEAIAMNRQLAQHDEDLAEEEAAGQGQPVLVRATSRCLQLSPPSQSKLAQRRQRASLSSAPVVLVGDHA

[12] = molecular target: Death-associated protein kinase 1 (Homo sapiens) (UniProt P53355); experiment: Inhibition of DAPK1 assessed as residual activity at 10 uM using [33P-ATP] by radiometric filter binding assay
[13] = molecular target: MAP kinase-activated protein kinase 2 (Homo sapiens) (UniProt P49137); experiment: Inhibition of MAPKAP-K2 assessed as residual activity at 10 uM using [33P-ATP] by radiometric filter binding assay
[14] = molecular target: Tyrosine-protein kinase BTK (Homo sapiens) (UniProt Q06187); experiment: Inhibition of BTK assessed as residual activity at 10 uM using [33P-ATP] by radiometric filter binding assay
[15] = molecular target: NUAK family SNF1-like kinase 1 (Homo sapiens) (UniProt O60285); experiment: Inhibition of NUAK1 assessed as residual activity at 10 uM using [33P-ATP] by radiometric filter binding assay
[16] = molecular target: Serine/threonine-protein kinase N2 (Homo sapiens) (UniProt Q16513); experiment: Inhibition of PRK2 assessed as residual activity at 10 uM using [33P-ATP] by radiometric filter binding assay
[17] = molecular target: MAP/microtubule affinity-regulating kinase 3 (Homo sapiens) (UniProt P27448); experiment: Inhibition of MARK3 assessed as residual activity at 10 uM using [33P-ATP] by radiometric filter binding assay
[18] = molecular target: MAP kinase-activated protein kinase 3 (Homo sapiens) (UniProt Q16644); experiment: Inhibition of MAPKAP-K3 assessed as residual activity at 10 uM using [33P-ATP] by radiometric filter binding assay
[19] = molecular target: Mitogen-activated protein kinase 3 (Homo sapiens) (UniProt P27361); experiment: Inhibition of ERK1 assessed as residual activity at 10 uM using [33P-ATP] by radiometric filter binding assay
[20] = molecular target: Tyrosine-protein kinase Yes (Homo sapiens) (UniProt P07947); experiment: Inhibition of YES1 assessed as residual activity at 10 uM using [33P-ATP] by radiometric filter binding assay
Chain of Tyrosine-protein kinase Yes (Homo sapiens) (P07947 2-543 limits assumed): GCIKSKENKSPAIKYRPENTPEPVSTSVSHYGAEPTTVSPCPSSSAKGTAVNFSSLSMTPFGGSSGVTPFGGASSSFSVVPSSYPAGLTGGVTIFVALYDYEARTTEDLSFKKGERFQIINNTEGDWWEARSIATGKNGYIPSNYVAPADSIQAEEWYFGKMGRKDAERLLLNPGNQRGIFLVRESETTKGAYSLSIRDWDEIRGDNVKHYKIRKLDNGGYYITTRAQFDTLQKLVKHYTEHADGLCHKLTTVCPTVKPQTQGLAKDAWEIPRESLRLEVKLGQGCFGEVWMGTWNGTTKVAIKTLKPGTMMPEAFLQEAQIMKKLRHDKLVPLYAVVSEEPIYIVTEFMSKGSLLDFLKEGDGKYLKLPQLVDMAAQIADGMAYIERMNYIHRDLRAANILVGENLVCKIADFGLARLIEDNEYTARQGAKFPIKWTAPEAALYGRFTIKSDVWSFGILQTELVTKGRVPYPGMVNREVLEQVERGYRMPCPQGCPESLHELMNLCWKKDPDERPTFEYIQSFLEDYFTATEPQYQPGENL

[21] = Inhibition of PKA assessed as residual activity at 10 uM using [33P-ATP] by radiometric filter binding assay
[22] = molecular target: Dual specificity tyrosine-phosphorylation-regulated kinase 2 (Homo sapiens) (UniProt Q92630); experiment: Inhibition of DYRK2 assessed as residual activity at 10 uM using [33P-ATP] by radiometric filter binding assay
Chain of Dual specificity tyrosine-phosphorylation-regulated kinase 2 (Homo sapiens) (Q92630 whole entry): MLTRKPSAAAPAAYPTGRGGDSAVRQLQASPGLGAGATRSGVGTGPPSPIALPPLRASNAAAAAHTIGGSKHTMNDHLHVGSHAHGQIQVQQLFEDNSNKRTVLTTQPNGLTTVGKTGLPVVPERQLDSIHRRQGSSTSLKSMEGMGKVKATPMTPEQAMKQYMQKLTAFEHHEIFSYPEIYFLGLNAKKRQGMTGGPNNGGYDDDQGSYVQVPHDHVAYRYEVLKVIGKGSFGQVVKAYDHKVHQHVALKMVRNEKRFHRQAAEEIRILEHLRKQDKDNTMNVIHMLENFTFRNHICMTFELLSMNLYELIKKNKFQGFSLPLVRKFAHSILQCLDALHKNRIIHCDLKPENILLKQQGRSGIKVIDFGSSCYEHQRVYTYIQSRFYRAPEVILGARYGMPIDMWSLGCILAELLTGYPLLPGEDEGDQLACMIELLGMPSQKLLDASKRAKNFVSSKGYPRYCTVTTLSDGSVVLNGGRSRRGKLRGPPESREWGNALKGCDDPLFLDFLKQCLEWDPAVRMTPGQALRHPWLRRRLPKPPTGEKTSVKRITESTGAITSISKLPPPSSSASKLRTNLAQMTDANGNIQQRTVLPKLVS

[23] = molecular target: MAP kinase-interacting serine/threonine-protein kinase 1 (Homo sapiens) (UniProt Q9BUB5); experiment: Inhibition of MNK1 assessed as residual activity at 10 uM using [33P-ATP] by radiometric filter binding assay
[24] = molecular target: Tau-tubulin kinase 1 (Homo sapiens) (UniProt Q5TCY1); experiment: Inhibition of TTBK1 assessed as residual activity at 10 uM using [33P-ATP] by radiometric filter binding assay
[25] = molecular target: Tyrosine-protein kinase JAK2 (Homo sapiens) (UniProt O60674); experiment: Inhibition of JAK2 assessed as residual activity at 10 uM using [33P-ATP] by radiometric filter binding assay
[26] = molecular target: Eukaryotic translation initiation factor 2-alpha kinase 3 (Homo sapiens) (UniProt Q9NZJ5); experiment: Inhibition of EIF2AK3 assessed as residual activity at 10 uM using [33P-ATP] by radiometric filter binding assay
[27] = molecular target: Homeodomain-interacting protein kinase 2 (Homo sapiens) (UniProt Q9H2X6); experiment: Inhibition of HIPK2 assessed as residual activity at 10 uM using [33P-ATP] by radiometric filter binding assay
[28] = molecular target: Serine/threonine-protein kinase Sgk1 (Homo sapiens) (UniProt O00141); experiment: Inhibition of SGK1 assessed as residual activity at 10 uM using [33P-ATP] by radiometric filter binding assay
[29] = molecular target: RAC-beta serine/threonine-protein kinase (Homo sapiens) (UniProt P31751); experiment: Inhibition of PKBbeta assessed as residual activity at 10 uM using [33P-ATP] by radiometric filter binding assay
Chain of RAC-beta serine/threonine-protein kinase (Homo sapiens) (P31751 whole entry): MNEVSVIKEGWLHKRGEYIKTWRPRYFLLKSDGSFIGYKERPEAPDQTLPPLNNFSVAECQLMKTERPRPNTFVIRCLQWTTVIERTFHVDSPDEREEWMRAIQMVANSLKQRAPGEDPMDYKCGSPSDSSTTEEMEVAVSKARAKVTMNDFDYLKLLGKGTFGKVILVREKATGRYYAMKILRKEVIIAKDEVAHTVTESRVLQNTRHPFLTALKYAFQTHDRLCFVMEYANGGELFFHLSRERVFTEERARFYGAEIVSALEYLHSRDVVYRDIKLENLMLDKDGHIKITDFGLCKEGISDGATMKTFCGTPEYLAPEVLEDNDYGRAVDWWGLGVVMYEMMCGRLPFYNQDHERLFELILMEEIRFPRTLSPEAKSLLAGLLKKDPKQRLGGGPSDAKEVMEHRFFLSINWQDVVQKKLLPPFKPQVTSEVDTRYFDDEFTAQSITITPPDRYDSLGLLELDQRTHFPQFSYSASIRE

[30] = molecular target: Dual specificity tyrosine-phosphorylation-regulated kinase 3 (Homo sapiens) (UniProt O43781); experiment: Inhibition of DYRK3 assessed as residual activity at 10 uM using [33P-ATP] by radiometric filter binding assay
[31] = molecular target: Homeodomain-interacting protein kinase 3 (Homo sapiens) (UniProt Q9H422); experiment: Inhibition of HIPK3 assessed as residual activity at 10 uM using [33P-ATP] by radiometric filter binding assay
[32] = molecular target: Misshapen-like kinase 1 (Homo sapiens) (UniProt Q8N4C8); experiment: Inhibition of MINK1 assessed as residual activity at 10 uM using [33P-ATP] by radiometric filter binding assay

Activity [1]: 107%
Activity [2]: 114%
Activity [3]: 63%
Activity [4]: 86%
Activity [5]: 49%
Activity [6]: 4%
Activity [7]: 52%
Activity [8]: 98%
Activity [9]: 103%
Activity [10]: 71%
pIC50 (Ephrin type-A receptor 4): 5.35
Activity [11]: 93%
Activity [13]: 89%
Activity [14]: 30%
Activity [15]: 79%
Activity [16]: 89%
Activity [17]: 81%
Activity [18]: 84%
Activity [19]: 97%
Activity [20]: 18%
Activity [21]: 93%
Activity [22]: 101%
Activity [23]: 78%
Activity [24]: 94%
Activity [25]: 74%
Activity [26]: 82%
Activity [27]: 98%
Activity [28]: 85%
Activity [29]: 77%
Activity [30]: 95%
Activity [31]: 94%
Activity [32]: 65%
SMILES: Cc1ccc(F)cc1-c1nc2[nH]nc(N)c2c2c1CCCC2
Activity [12]: 101%
